From patent US11447471B2, “α,β-unsaturated amide compound” (KYOWA KIRIN CO., LTD., priority 2017, dated 2022)

Experiments:
Assay type in all cases: cell-based
NCI-H226 cells = assay: Cell growth inhibitory effect on human mesothelioma cell line (cell counting kit 8, 6 days); details: NCI-H226, 144 h
Method in brief: (§1)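 Cells in RPMI1640 with 10% FBS plated at 500 cells/well (OVTOKO 250/well) and cultured one day at 37° C, 5% CO2. Serially diluted compound added (final DMSO 0.1%) for 6 days; viable cells measured at addition and day 6 with CCK-8, absorbance 450 nm. GI50 derived from growth inhibition rate.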

OVTOKO cells = assay: Cell growth inhibitory effect on human ovarian cancer cell line (cell counting kit 8, 6 days); details: 144 h, 6 days incubation
Method in brief: as §1

NCI-H322 cells = assay: Cell growth inhibitory effect on human lung cancer cell line (cell counting kit 8, 6 days); details: 144 h; human lung cancer cell line NCI-H322, 6 days incubation
Description: (§2) NCI-H226 cells, a human mesothelioma cell line (ATCC, CRL-5826), NCI-H322 cells, a human lung cancer cell line (the European Collection of Authenticated Cell Cultures, 95111734), OUTOKO cells, a human ovarian cancer cell line (JCRB cell bank, KRB1048) and […] were each subcultured by keeping the cell density under 80% in a RPMI1640 culture medium with 10% fetal bovine serum (FBS). NCI-H226 cells, NCI-H322 cells and SSP-25 cells were each suspended in the RPMI1640 culture medium mentioned above, and plated to a 96-well flat-bottom plate at 500 cells/well in each well, and incubated at 37° C. in an incubator with 5% CO2 for one day. After the incubation, the evaluation of cell growth inhibitory activity was started. OVTOKO cells were suspended in the RPMI1640 culture medium mentioned above, and plated to a 96-well flat-bottom plate at 250 cells/well in each well, and incubated it at 37° C. in an incubator with 5% CO2 for one day. After the incubation, the evaluation of the cell growth inhibitory activity was started. The next day, a test compound was serially diluted to 5 times of its final concentration in the RPM11640 culture medium mentioned above, and the diluted solution was added to each well. In this case, the final concentration of DMSO in each well was adjusted to 0.1%. After the test compound was added, cells were incubated at 37° C. in an incubator with 5% CO2 for 6 days. At the addition of the test compound and 6 days after the addition, the cell counting measurement was performed using a cell counting kit 8 (made by DOJINDO) according to a protocol equivalent to DOJINDO's recommendation. A reagent contained in the kit was added to each plate and color reaction was performed for 2 or 3 hours at 37° C. in an incubator with 5% CO2. After the reaction, an absorbance at wavelength of 450 nm was measured using a microplate reader. A growth inhibition rate was calculated according to the following formula, from which the concentration of a test compound at which cell growth was inhibited by 50% (GI50 value) was determined.

HuH28 cells = assay: Cell growth inhibitory effect on human liver cancer cell line (cell counting kit 8, 6 days); details: 144 h; human liver cancer cell line HuH28, 6 days incubation
Description: as §2

SMILES	GI50 (NCI-H226 cells) [nM]	GI50 (OVTOKO cells) [nM]	GI50 (NCI-H322 cells) [nM]	GI50 (HuH28 cells) [nM]
C=CC(=O)NCc1ccc(Oc2ccc(OC)cc2)c2nc(C)oc12 [Compound 280, N-[{4-(4-Methoxyphenoxy]-2-methylbenzo[d]oxazol-7-yl}methyl)acrylamide]	< 100	≤ 3000	< 1000	< 3000
C=CC(=O)NCc1ccc(Oc2ccc(Cl)cc2)c2nc(C)oc12 [Compound 281, N-[{4-(4-Chlorophenoxy]-2-methylbenzo[d]oxazol-7-yl}methyl)acrylamide]	< 100	≤ 3000	< 1000	< 3000
C=CC(=O)NCc1ccc(OCc2ccccc2)c2nc(C)oc12 [Compound 282, N-[{4-(Benzyloxy)-2-methylbenzo[d]oxazol-7-yl}methyl]acrylamide]	< 100	≤ 3000	< 1000	< 3000
C=CC(=O)NCc1ccc(Oc2ccc(C(F)(F)F)nc2)c2oc(C)nc12 [Compound 283, N-{(2-Methyl-7-[{6-(trifluoromethyl)pyridin-3-yl}oxy]benzo[d]oxazol-4-yl)methyl}acrylamide]	< 100	≤ 3000	< 1000	< 3000
C=CC(=O)NCc1ccc(Oc2ccc(C(F)(F)F)cn2)c2oc(C)nc12 [Compound 284, N-{(2-Methyl-7-[{5-(trifluoromethyl)pyridin-2-yl}oxy]benzo[d]oxazol-4-yl)methyl}acrylamide]	< 100	≤ 3000	< 1000	< 3000
C=CC(=O)NCc1ccc(Oc2ccc(C(F)(F)F)nc2)c2nc(C)sc12 [Compound 285, N-{(2-Methyl-4-[{6-(trifluoromethyl)pyridin-3-yl}oxy]benzo[d]thiazol-7-yl)methyl}acrylamide]	< 100	≤ 3000	< 1000	< 3000
C=CC(=O)NCc1ccc(Oc2ccc(C(F)(F)F)cn2)c2nc(C)sc12 [Compound 286, N-{(2-Methyl-4-[{5-(trifluoromethyl)pyridin-2-yl}oxy]benzo[d]thiazol-7-yl)methyl}acrylamide]	< 100	≤ 3000	< 1000	< 3000
C=CC(=O)NCc1ccc(Oc2ccc(C(F)(F)F)nc2)c2sc(C)nc12 [Compound 287, N-{(2-Methyl-7-[{6-(trifluoromethyl)pyridin-3-yl}oxy]benzo[d]thiazol-4-yl)methyl}acrylamide]	< 100	≤ 3000	< 1000	< 3000
C=CC(=O)NCc1ccc(Oc2ccc(C(F)(F)F)cn2)c2sc(C)nc12 [Compound 288, N-{(2-Methyl-7-[{5-(trifluoromethyl)pyridin-2-yl}oxy]benzo[d]thiazol-4-yl)methyl}acrylamide]	< 100	≤ 3000	< 1000	< 3000
